Reference: PubChem BioAssay (NCI)
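GI50 = concentration required for 50% inhibition of growth. TGI denotes the concentration required for complete inhibition of growth.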

How the values were obtained:
Assay in all cases: NCI anticancer screen, dose series, 384-well format
SK-MEL-28 melanoma = tested on: SK-MEL-28 melanoma
MDA-MB-468 breast = tested on: MDA-MB-468 breast
ACHN renal = tested on: ACHN renal
SK-MEL-2 melanoma = tested on: SK-MEL-2 melanoma
M14 melanoma = tested on: M14 melanoma
HS 578T breast = tested on: HS 578T breast
A549 NSCLC = tested on: A549 NSCLC
LOX IMVI melanoma = tested on: LOX IMVI melanoma
EKVX NSCLC = tested on: EKVX NSCLC
MCF7 breast = tested on: MCF7 breast
SF-268 CNS = tested on: SF-268 CNS
MOLT-4 leukemia = tested on: MOLT-4 leukemia
NCI-H460 NSCLC = tested on: NCI-H460 NSCLC
IGROV1 ovarian = tested on: IGROV1 ovarian
KM12 colon = tested on: KM12 colon
OVCAR-8 ovarian = tested on: OVCAR-8 ovarian
HOP-92 NSCLC = tested on: HOP-92 NSCLC
DU-145 prostate = tested on: DU-145 prostate
K-562 leukemia = tested on: K-562 leukemia
NCI-H522 lung = tested on: NCI-H522 lung
NCI/ADR-RES ovarian = tested on: NCI/ADR-RES ovarian
MALME-3M melanoma = tested on: MALME-3M melanoma
COLO 205 colon = tested on: COLO 205 colon
SK-OV-3 ovarian = tested on: SK-OV-3 ovarian
CCRF-CEM leukemia = tested on: CCRF-CEM leukemia
HCC-2998 colon = tested on: HCC-2998 colon
NCI-H322M lung = tested on: NCI-H322M lung
786-0 renal = tested on: 786-0 renal
BT-549 breast = tested on: BT-549 breast
RXF 393 renal = tested on: RXF 393 renal
HL-60(TB) leukemia = tested on: HL-60(TB) leukemia
NCI-H226 lung = tested on: NCI-H226 lung
HT29 colon = tested on: HT29 colon
SNB-19 CNS = tested on: SNB-19 CNS
SN12C renal = tested on: SN12C renal
HCT-15 colon = tested on: HCT-15 colon
MDA-MB-435 melanoma = tested on: MDA-MB-435 melanoma
UACC-62 melanoma = tested on: UACC-62 melanoma
OVCAR-4 ovarian = tested on: OVCAR-4 ovarian
TK-10 renal = tested on: TK-10 renal
RPMI-8226 leukemia = tested on: RPMI-8226 leukemia
U251 glioblastoma = tested on: U251 glioblastoma
HCT-116 colon = tested on: HCT-116 colon
SW-620 colon = tested on: SW-620 colon
CAKI-1 renal = tested on: CAKI-1 renal
HOP-62 NSCLC = tested on: HOP-62 NSCLC
SF-539 CNS = tested on: SF-539 CNS

For `CNCc1ccc(C)c(NC(=O)c2ccc(Nc3nc(-c4ccccc4)c4ccccc4n3)cc2)c1`, which GI50 (SK-MEL-28 melanoma) is on record?
The GI50 was 1690 nM.

What about the TGI (SK-MEL-28 melanoma) of the same compound?
The TGI was 3060 nM.

And the GI50 (MDA-MB-468 breast)?
Its GI50 is 1710 nM.

What about the TGI (MDA-MB-468 breast) of the same compound?
Its TGI is 3090 nM.

What about the GI50 (ACHN renal) of the same compound?
The GI50 was 1840 nM.

What about the TGI (ACHN renal) of the same compound?
Its TGI is 3260 nM.

What about the GI50 (SK-MEL-2 melanoma) of the same compound?
Its GI50 is 1810 nM.

And the TGI (SK-MEL-2 melanoma)?
The TGI was 3210 nM.

What about the GI50 (M14 melanoma) of the same compound?
The GI50 was 2030 nM.

And the TGI (M14 melanoma)?
Its TGI is 3470 nM.

What about the GI50 (HS 578T breast) of the same compound?
The GI50 was 1930 nM.

What about the TGI (HS 578T breast) of the same compound?
The TGI was 3340 nM.

And the GI50 (A549 NSCLC)?
The GI50 was 1800 nM.

What about the TGI (A549 NSCLC) of the same compound?
The TGI was 3240 nM.

And the GI50 (LOX IMVI melanoma)?
The GI50 was 1550 nM.

And the TGI (LOX IMVI melanoma)?
Its TGI is 2910 nM.

And the GI50 (EKVX NSCLC)?
Its GI50 is 1570 nM.

And the TGI (EKVX NSCLC)?
The TGI was 2950 nM.

What about the GI50 (MCF7 breast) of the same compound?
The GI50 was 1480 nM.

And the TGI (MCF7 breast)?
Its TGI is 2850 nM.

And the GI50 (SF-268 CNS)?
Its GI50 is 1770 nM.

And the TGI (SF-268 CNS)?
Its TGI is 3170 nM.

What about the GI50 (MOLT-4 leukemia) of the same compound?
Its GI50 is 1510 nM.

And the TGI (MOLT-4 leukemia)?
The TGI was 2850 nM.

And the GI50 (NCI-H460 NSCLC)?
Its GI50 is 1360 nM.

And the TGI (NCI-H460 NSCLC)?
Its TGI is 2710 nM.

And the GI50 (IGROV1 ovarian)?
The GI50 was 1810 nM.

And the TGI (IGROV1 ovarian)?
The TGI was 3600 nM.

And the GI50 (KM12 colon)?
Its GI50 is 1420 nM.

And the TGI (KM12 colon)?
Its TGI is 2750 nM.

What about the GI50 (OVCAR-8 ovarian) of the same compound?
The GI50 was 1640 nM.

And the TGI (OVCAR-8 ovarian)?
Its TGI is 3020 nM.

And the GI50 (HOP-92 NSCLC)?
Its GI50 is 1790 nM.

What about the TGI (HOP-92 NSCLC) of the same compound?
The TGI was 3180 nM.

And the GI50 (DU-145 prostate)?
The GI50 was 1930 nM.

And the TGI (DU-145 prostate)?
The TGI was 3480 nM.

What about the GI50 (K-562 leukemia) of the same compound?
Its GI50 is 1400 nM.

And the TGI (K-562 leukemia)?
The TGI was 2740 nM.

What about the GI50 (NCI-H522 lung) of the same compound?
Its GI50 is 1840 nM.

What about the TGI (NCI-H522 lung) of the same compound?
Its TGI is 3250 nM.

What about the GI50 (NCI/ADR-RES ovarian) of the same compound?
The GI50 was 1860 nM.

What about the TGI (NCI/ADR-RES ovarian) of the same compound?
The TGI was 3330 nM.

What about the GI50 (MALME-3M melanoma) of the same compound?
The GI50 was 1310 nM.

What about the TGI (MALME-3M melanoma) of the same compound?
The TGI was 2590 nM.

And the GI50 (COLO 205 colon)?
Its GI50 is 1600 nM.

And the TGI (COLO 205 colon)?
Its TGI is 2960 nM.

What about the GI50 (SK-OV-3 ovarian) of the same compound?
Its GI50 is 1780 nM.

And the TGI (SK-OV-3 ovarian)?
The TGI was 3180 nM.

And the GI50 (CCRF-CEM leukemia)?
Its GI50 is 1580 nM.

What about the TGI (CCRF-CEM leukemia) of the same compound?
The TGI was 2940 nM.

And the GI50 (HCC-2998 colon)?
The GI50 was 1280 nM.

What about the TGI (HCC-2998 colon) of the same compound?
Its TGI is 2550 nM.

And the GI50 (NCI-H322M lung)?
Its GI50 is 1740 nM.

What about the TGI (NCI-H322M lung) of the same compound?
Its TGI is 3140 nM.

What about the GI50 ([…]-0 renal) of the same compound?
The GI50 was 1500 nM.

And the TGI (786-0 renal)?
Its TGI is 2840 nM.

And the GI50 (BT-549 breast)?
The GI50 was 1700 nM.

What about the TGI (BT-549 breast) of the same compound?
Its TGI is 3090 nM.

What about the GI50 (RXF 393 renal) of the same compound?
The GI50 was 1460 nM.

What about the TGI (RXF 393 renal) of the same compound?
The TGI was 2790 nM.

What about the GI50 (HL-60(TB) leukemia) of the same compound?
Its GI50 is 1040 nM.

What about the TGI (HL-60(TB) leukemia) of the same compound?
The TGI was 2400 nM.

And the GI50 (NCI-H226 lung)?
Its GI50 is 1880 nM.

What about the TGI (NCI-H226 lung) of the same compound?
The TGI was 3360 nM.

And the GI50 (HT29 colon)?
The GI50 was 1410 nM.

And the TGI (HT29 colon)?
Its TGI is 2740 nM.

What about the GI50 (SNB-19 CNS) of the same compound?
The GI50 was 1860 nM.

And the TGI (SNB-19 CNS)?
Its TGI is 3310 nM.

What about the GI50 (SN12C renal) of the same compound?
The GI50 was 1590 nM.

What about the TGI (SN12C renal) of the same compound?
Its TGI is 2960 nM.

What about the GI50 (HCT-15 colon) of the same compound?
The GI50 was 1050 nM.

And the TGI (HCT-15 colon)?
Its TGI is 2390 nM.

And the GI50 (MDA-MB-435 melanoma)?
The GI50 was 1910 nM.

What about the TGI (MDA-MB-435 melanoma) of the same compound?
The TGI was 3340 nM.

And the GI50 (UACC-62 melanoma)?
The GI50 was 1610 nM.

What about the TGI (UACC-62 melanoma) of the same compound?
Its TGI is 2970 nM.

What about the GI50 (OVCAR-4 ovarian) of the same compound?
The GI50 was 1860 nM.

What about the TGI (OVCAR-4 ovarian) of the same compound?
The TGI was 3400 nM.

What about the GI50 (TK-10 renal) of the same compound?
The GI50 was 1810 nM.

And the TGI (TK-10 renal)?
Its TGI is 3290 nM.

What about the GI50 (RPMI-8226 leukemia) of the same compound?
The GI50 was 1720 nM.

What about the TGI (RPMI-8226 leukemia) of the same compound?
The TGI was 3100 nM.

What about the GI50 (U251 glioblastoma) of the same compound?
Its GI50 is 1730 nM.

And the TGI (U251 glioblastoma)?
Its TGI is 3130 nM.

What about the GI50 (HCT-116 colon) of the same compound?
Its GI50 is 1730 nM.

What about the TGI (HCT-116 colon) of the same compound?
Its TGI is 3160 nM.

What about the GI50 (SW-620 colon) of the same compound?
The GI50 was 1850 nM.

What about the TGI (SW-620 colon) of the same compound?
Its TGI is 3280 nM.

What about the GI50 (CAKI-1 renal) of the same compound?
Its GI50 is 420 nM.

What about the TGI (CAKI-1 renal) of the same compound?
The TGI was 1360 nM.

What about the GI50 (HOP-62 NSCLC) of the same compound?
The GI50 was 1910 nM.

What about the TGI (HOP-62 NSCLC) of the same compound?
The TGI was 3330 nM.

And the GI50 (SF-539 CNS)?
The GI50 was 1710 nM.

What about the TGI (SF-539 CNS) of the same compound?
The TGI was 3100 nM.
